{"source": "patent US20060079453A1", "about": "“Hla binding peptides and their uses” (priority 2002, published 2006)", "test_in_all_cases": "biochemical", "type_in_all_cases": "binding", "key": {"[1]": {"biological_target": "HLA-DR DRB1*0301 (DR3) (Homo sapiens, UniProt P01903+P01911, A100K/A102G/A103R/A169T/F55Y/I96L/K41T/L162R/M171V/P40S/Q125H/Q178H/Q39Y/R42S/S66N/T106N/T262R/W38E/Y61H)", "sequence (P01903 26-254 limits assumed, other chains not shown)": "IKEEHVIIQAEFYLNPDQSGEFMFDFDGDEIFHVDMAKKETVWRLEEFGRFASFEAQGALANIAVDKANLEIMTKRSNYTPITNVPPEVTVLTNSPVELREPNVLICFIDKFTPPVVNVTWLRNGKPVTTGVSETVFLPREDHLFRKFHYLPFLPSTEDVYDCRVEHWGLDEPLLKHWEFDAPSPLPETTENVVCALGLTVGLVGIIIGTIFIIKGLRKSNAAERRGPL"}, "[2]": {"biological_target": "HLA-DR DRB1*0401 (DR4) (Homo sapiens, UniProt P01903+P01911, A100K/A169T/F76Y/I96L/K127E/L162R/M171V/N62H/P40V/Q125Y/R42H/S133A/S149N/S66Y/V115G/V209L/W38E)"}, "[3]": {"biological_target": "HLA-DR DRB1*0701 (DR7) (Homo sapiens, UniProt P01903+P01911, A100R/A102G/A103Q/D57E/D86V/E43K/F76Y/K127E/L162R/M171V/P40G/Q125H/Q99D/R33Q/R42Y/R54Q/S133A/S66F/T210M/V115G/Y107V/Y59L/Y89S)"}, "[4]": {"biological_target": "HLA-DR DRB1*0802 (DR8) (Homo sapiens, UniProt P01903+P01911, A100R/A103L/A169T/F76Y/H45Y/I96F/K41T/L162R/M171V/P40S/Q125H/Q178H/Q39Y/Q99D/R218S/R42G/S66Y/V115G/W38E)"}, "[5]": {"biological_target": "HLA-DR DRB1*0901 (DR9) (Homo sapiens, UniProt P01903+P01911, A100R/A103E/D57H/D86V/F55Y/F60I/F76Y/I96F/K127E/L162R/M171V/P40D/Q125H/Q99R/R33Q/R42F/S133A/S66N/T210M/V115G/W38K/Y107V/Y59G/Y89S)"}, "[6]": {"biological_target": "HLA-DR DRB1*1302 (DR13) (Homo sapiens, UniProt P01903+P01911, A100E/A169T/K41T/L162R/M171V/P40S/Q125H/Q178H/Q39Y/Q99D/R42S/S66N/T262R/V115G/W38E/Y61H)", "sequence (P01903 26-254 limits assumed, other chains not shown)": "as above", "details": "DRBI *1302"}, "[7]": {"biological_target": "HLA-DR DRB1*1501 (DR15) (Homo sapiens, UniProt P01903+P01911)", "details": "DRBI *1501"}, "[8]": {"biological_target": "HLA-DR DRB5*0101 (DR51) (Homo sapiens, UniProt P01903+Q30154)", "details": "DRB5 *0101"}, "[9]": {"biological_target": "HLA-DR DRB1*0101 (DR1) (Homo sapiens, UniProt P01903+P01911, A100R/D57E/F55L/F60I/F76Y/I96L/L162R/M171V/P40L/Q125E/R42F/V115G/Y59C)"}, "[10]": {"biological_target": "HLA-DR DRB4*0101 (DR53) (Homo sapiens, UniProt P01903+P13762, G164S)", "details": "DRB4 *0101"}, "[11]": {"biological_target": "HLA-DR DRB1*1101 (DR11) (Homo sapiens, UniProt P01903+P01911, A100R/A169T/A87E/I96F/K41T/L162R/M171V/P40S/Q125H/Q178H/Q39Y/Q99D/R42S/S66Y/T262R/V115G/W38E)", "sequence (P01903 26-254 limits assumed, other chains not shown)": "as above", "details": "DRB1 *1101"}}, "note": "pIC50: −log10 of the molar value. Read-outs that look alike come from different tables or passages of the source. No end group written: not given here."}
{"molecule": "CC(C)C[C@H](NC(=O)[C@@H]1CCCN1C(=O)[C@H](Cc1c[nH]cn1)NC(=O)[C@@H]1CCCN1C(=O)[C@H](Cc1ccccc1)NC(=O)[C@H](CO)NC(=O)[C@H](Cc1c[nH]cn1)NC(=O)[C@H](CO)NC(=O)[C@@H](NC(=O)[C@H](CCC(N)=O)NC(=O)[C@H](Cc1ccccc1)NC(=O)[C@@H](NC(=O)[C@H](CCC(N)=O)NC(=O)CN)C(C)C)C(C)C)C(=O)N[C@@H](Cc1ccc(O)cc1)C(=O)O", "values": [{"measurement": "pIC50", "setting": "[1]", "value": 4.35}, {"measurement": "pIC50", "setting": "[2]; DRB1 *0401", "value": 8.09}, {"measurement": "pIC50", "setting": "[3]; DRB1 *0701", "value": 7.57}, {"measurement": "pIC50", "setting": "[4]", "value": 6.26}, {"measurement": "pIC50", "setting": "[5]; DRB1 *0901", "value": 7.48}, {"measurement": "pIC50", "setting": "[6]", "value": 6.84}, {"measurement": "pIC50", "setting": "[7]", "value": 5.66}, {"measurement": "pIC50", "setting": "[8]", "value": 6.89}]}
{"molecule": "CC[C@H](C)[C@H](NC(=O)[C@H](CS)NC(=O)[C@H](Cc1c[nH]cn1)NC(=O)[C@H](C)NC(=O)[C@H](C)NC(=O)[C@@H](NC(=O)[C@H](CC(C)C)NC(=O)[C@@H](NC(=O)[C@H](Cc1c[nH]c2ccccc12)NC(=O)[C@H](CCC(N)=O)NC(=O)[C@@H]1CCCN1C(=O)[C@@H](N)Cc1c[nH]cn1)C(C)C)[C@@H](C)O)C(=O)N[C@@H](CCCNC(=N)N)C(=O)N[C@@H](CC(N)=O)C(=O)N[C@@H](CCCCN)C(=O)O", "values": [{"measurement": "pIC50", "setting": "[9]; DRB1 *0101", "value": 7.89}, {"measurement": "pIC50", "setting": "[1]", "value": 5.44}, {"measurement": "pIC50", "setting": "[2]; DRB1 *0401", "value": 5.79}, {"measurement": "pIC50", "setting": "[3]; DRB1 *0701", "value": 6.55}, {"measurement": "pIC50", "setting": "[4]", "value": 5.88}, {"measurement": "pIC50", "setting": "[5]; DRB1 *0901", "value": 6.97}, {"measurement": "pIC50", "setting": "[7]", "value": 5.19}, {"measurement": "pIC50", "setting": "[10]", "value": 5.26}, {"measurement": "pIC50", "setting": "[8]", "value": 7.40}]}
{"molecule": "CC[C@H](C)[C@H](NC(=O)[C@@H](N)CCC(N)=O)C(=O)N[C@@H](Cc1ccc(O)cc1)C(=O)N[C@H](C(=O)N[C@@H](C)C(=O)N[C@@H](C)C(=O)N[C@@H](Cc1ccccc1)C(=O)N[C@H](C(=O)N[C@H](C(=O)N[C@@H](CCC(N)=O)C(=O)N[C@@H](C)C(=O)N[C@@H](C)C(=O)N[C@@H](C)C(=O)N[C@@H](CCC(=O)O)C(=O)N[C@H](C(=O)O)[C@@H](C)O)C(C)C)[C@@H](C)O)C(C)C", "values": [{"measurement": "pIC50", "setting": "[9]; DRB1 *0101", "value": 8.80}, {"measurement": "pIC50", "setting": "[1]", "value": 4.57}, {"measurement": "pIC50", "setting": "[2]; DRB1 *0401", "value": 8.80}, {"measurement": "pIC50", "setting": "[3]; DRB1 *0701", "value": 6.49}, {"measurement": "pIC50", "setting": "[4]", "value": 6.99}, {"measurement": "pIC50", "setting": "[5]; DRB1 *0901", "value": 7.19}, {"measurement": "pIC50", "setting": "[11]", "value": 7.47}, {"measurement": "pIC50", "setting": "[7]", "value": 6.60}, {"measurement": "pIC50", "setting": "[10]", "value": 7.30}, {"measurement": "pIC50", "setting": "[8]", "value": 6.67}]}
{"molecule": "CAWTIVRVEILRNFY", "values": [{"measurement": "pIC50", "setting": "[9]; DRB1 *0101", "value": 7.18}, {"measurement": "pIC50", "setting": "[1]", "value": 5.45}, {"measurement": "pIC50", "setting": "[2]; DRB1 *0401", "value": 6.80}, {"measurement": "pIC50", "setting": "[3]; DRB1 *0701", "value": 6.13}, {"measurement": "pIC50", "setting": "[4]", "value": 4.36}, {"measurement": "pIC50", "setting": "[5]; DRB1 *0901", "value": 6.12}, {"measurement": "pIC50", "setting": "[10]", "value": 6.82}]}
{"molecule": "DKAVSGLRSLTTLLR", "values": [{"measurement": "pIC50", "setting": "[9]; DRB1 *0101", "value": 7.89}, {"measurement": "pIC50", "setting": "[1]", "value": 5.36}, {"measurement": "pIC50", "setting": "[2]; DRB1 *0401", "value": 5.99}, {"measurement": "pIC50", "setting": "[4]", "value": 4.79}, {"measurement": "pIC50", "setting": "[5]; DRB1 *0901", "value": "< 4.10"}, {"measurement": "pIC50", "setting": "[11]", "value": 7.28}, {"measurement": "pIC50", "setting": "[6]", "value": 6.73}, {"measurement": "pIC50", "setting": "[7]", "value": 7.22}, {"measurement": "pIC50", "setting": "[10]", "value": 5.70}, {"measurement": "pIC50", "setting": "[8]", "value": 6.98}]}
{"molecule": "FYNQHLTGSHLVEAL", "values": [{"measurement": "pIC50", "setting": "[9]; read-out: DRB1 *0101", "value": 8.04}, {"measurement": "pIC50", "setting": "[1]; read-out: DRB1 *0301", "value": 4.17}, {"measurement": "pIC50", "setting": "[2]; read-out: DRB1 *0401", "value": 6.07}, {"measurement": "pIC50", "setting": "[3]; read-out: DRB1 *0701", "value": 7.82}, {"measurement": "pIC50", "setting": "[4]; read-out: DRB1 *0802", "value": "< 4.26"}, {"measurement": "pIC50", "setting": "[5]; read-out: DRB1 *0901", "value": 4.38}]}
{"molecule": "IFAIFRQDSSSTGWN", "values": [{"measurement": "pIC50", "setting": "[1]", "value": 6.40}, {"measurement": "pIC50", "setting": "[2]; DRB1 *0401", "value": 8.02}, {"measurement": "pIC50", "setting": "[4]", "value": 5.33}, {"measurement": "pIC50", "setting": "[5]; DRB1 *0901", "value": 6.01}, {"measurement": "pIC50", "setting": "[11]", "value": 5.34}, {"measurement": "pIC50", "setting": "[6]", "value": 6.11}, {"measurement": "pIC50", "setting": "[7]", "value": 6.69}, {"measurement": "pIC50", "setting": "[10]", "value": 7.52}, {"measurement": "pIC50", "setting": "[8]", "value": 3.96}]}
{"molecule": "LAHYDVLLSYPNK", "values": [{"measurement": "pIC50", "setting": "[9]; read-out: DRB1 *0101", "value": 7.10}, {"measurement": "pIC50", "setting": "[1]; read-out: DRB1 *0301", "value": 4.43}, {"measurement": "pIC50", "setting": "[3]; read-out: DRB1 *0701", "value": 5.44}, {"measurement": "pIC50", "setting": "[4]; read-out: DRB1 *0802", "value": 6.38}, {"measurement": "pIC50", "setting": "[5]; read-out: DRB1 *0901", "value": 6.00}]}
{"molecule": "RGGMVFELANSIYLP", "values": [{"measurement": "pIC50", "setting": "[9]; read-out: DRB1 *0101", "value": 8.00}, {"measurement": "pIC50", "setting": "[1]; read-out: DRB1 *0301", "value": 4.43}, {"measurement": "pIC50", "setting": "[3]; read-out: DRB1 *0701", "value": 7.39}, {"measurement": "pIC50", "setting": "[4]; read-out: DRB1 *0802", "value": 5.06}, {"measurement": "pIC50", "setting": "[5]; read-out: DRB1 *0901", "value": 7.48}]}
{"molecule": "RQEILDLWVYHTQGF", "values": [{"measurement": "pIC50", "setting": "[1]", "value": 4.98}, {"measurement": "pIC50", "setting": "[2]; DRB1 *0401", "value": 5.23}, {"measurement": "pIC50", "setting": "[3]; DRB1 *0701", "value": 5.52}, {"measurement": "pIC50", "setting": "[4]", "value": 5.56}, {"measurement": "pIC50", "setting": "[5]; DRB1 *0901", "value": 5.43}, {"measurement": "pIC50", "setting": "[11]", "value": 4.95}, {"measurement": "pIC50", "setting": "[7]", "value": 6.01}, {"measurement": "pIC50", "setting": "[8]", "value": "< 4.69"}]}
{"molecule": "SHDLMLLRLSEPAEL", "values": [{"measurement": "pIC50", "setting": "[9]; read-out: DRB1 *0101", "value": 6.27}, {"measurement": "pIC50", "setting": "[1]; read-out: DRB1 *0301", "value": 5.21}, {"measurement": "pIC50", "setting": "[2]; read-out: DRB1 *0401", "value": 5.39}, {"measurement": "pIC50", "setting": "[3]; read-out: DRB1 *0701", "value": 7.24}, {"measurement": "pIC50", "setting": "[4]; read-out: DRB1 *0802", "value": 5.45}, {"measurement": "pIC50", "setting": "[5]; read-out: DRB1 *0901", "value": 7.19}]}
